According to US5512574A, “Quinuclidine and azabicyclo 2.2.1! heptane pyrazinyl ethers as muscarinic agonists” (American Home Products Corporation, priority 1995, dated 1996):
Read-outs that look alike come from different tables or passages of the source.

Assays:
[1] = molecular target: T1, m1 muscarinic receptor (Homo sapiens, UniProt P11229); experiment: biochemical; format: binding
T1 sequence (P11229 1-460): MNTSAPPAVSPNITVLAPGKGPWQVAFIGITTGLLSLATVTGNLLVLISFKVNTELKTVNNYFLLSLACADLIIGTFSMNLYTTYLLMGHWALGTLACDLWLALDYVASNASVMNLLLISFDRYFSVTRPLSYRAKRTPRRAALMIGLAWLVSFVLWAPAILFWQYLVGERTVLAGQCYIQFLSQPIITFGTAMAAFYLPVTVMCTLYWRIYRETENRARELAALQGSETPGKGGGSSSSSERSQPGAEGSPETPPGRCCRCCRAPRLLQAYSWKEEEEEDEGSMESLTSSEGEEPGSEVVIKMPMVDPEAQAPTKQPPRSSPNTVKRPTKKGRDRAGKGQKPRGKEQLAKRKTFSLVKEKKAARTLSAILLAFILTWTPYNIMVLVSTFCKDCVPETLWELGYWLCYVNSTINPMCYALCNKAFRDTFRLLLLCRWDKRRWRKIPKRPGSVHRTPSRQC

[2] = molecular target: T2, m2 muscarinic receptor (Homo sapiens, UniProt P08172); experiment: biochemical; format: binding
T2 sequence (P08172 1-466): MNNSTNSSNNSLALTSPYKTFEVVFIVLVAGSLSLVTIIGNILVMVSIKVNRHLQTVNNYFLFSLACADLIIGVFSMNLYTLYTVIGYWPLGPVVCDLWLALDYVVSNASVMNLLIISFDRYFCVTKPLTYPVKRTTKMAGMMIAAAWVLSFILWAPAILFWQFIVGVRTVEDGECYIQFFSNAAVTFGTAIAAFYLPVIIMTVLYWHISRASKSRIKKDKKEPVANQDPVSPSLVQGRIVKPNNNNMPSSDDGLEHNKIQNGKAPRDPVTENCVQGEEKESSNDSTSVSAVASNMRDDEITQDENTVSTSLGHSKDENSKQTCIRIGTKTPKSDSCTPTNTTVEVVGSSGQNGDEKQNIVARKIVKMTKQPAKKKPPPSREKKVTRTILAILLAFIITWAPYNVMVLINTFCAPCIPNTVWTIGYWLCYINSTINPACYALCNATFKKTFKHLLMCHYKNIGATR

[3] = molecular target: T3, M1 acetylcholine receptors (Homo sapiens, UniProt P11229); experiment: stimulation of phosphoinositide (PI) hydrolysis in CHO cells expressing M1 acetylcholine receptors; format: cell-based; details: for Emax: CHO, 1 h; for EC50: read-out: m1 agonism [P.I.] EC50; for m1 CHO @ 30 × Ki % Carbachol / m1 CHO % Carbachol (at Ki): PI hydrolysis, 60 min; for m1 CHO @ 30 × Ki % Carbachol: at 30 × Ki
T3 sequence (P11229 1-460): T1 sequence (P11229 1-460)
Procedure: (§1) The tubes are incubated for one hour at 37° C. The reaction is quenched with chloroform and the phosphatidyl inositols are extracted with methanol and chloroform. Phase separation is assured with the addition of methanol and water followed by centrifugation. The tritiated inositol phosphates are recovered on BioRad AG 1-X8 anion exchange resin in the formate cycle. After washing the resin with water and myo-inositol, the inositol phosphates are eluted with ammonium formate/formic acid, collected and subjected to liquid scintillation spectroscopy.
(§2) Cloned human receptors in CHO cells were used in these studies.

[4] = molecular target: m1 muscarinic receptor (Homo sapiens, UniProt P11229); experiment: biochemical; format: binding; remark: listed apart in the source
[5] = molecular target: M1 acetylcholine receptors (Homo sapiens, UniProt P11229); experiment: stimulation of phosphoinositide (PI) hydrolysis in CHO cells expressing M1 acetylcholine receptors; format: cell-based
Procedure: as §1, §2

[6] = molecular target: T2, m2 muscarinic receptor; experiment: m2 agonism (cAMP) / functional selectivity; format: cell-based; details: for EC50: cAMP, m2; for Functional Selectivity-m2/m1: ratio of m2 (cAMP) EC50 to m1 (PI) EC50
Source text: Such diseases include presenile and senile dementia (also known as Alzheimer's Disease and Senile Dementia of the Alzheimer Type, respectively), Huntington's Chorea, Tardive Dyskinesia, Hyperkinesia, Mania and Tourette's Syndrome. Alzheimer's Disease is a slowly progressive neurological disorder characterized by deficits in cognitive function including memory, attention, language and visual perception capabilities.
as §2

[7] = m1, cloned human receptors in CHO cells, read-out: [3H]QNB Binding Ki(μM) m1
[8] = read-out: [3H]QNB Binding Ki(μM) m2
[9] = read-out: m1 CHO @ 30 × Ki % Carbachol, PI hydrolysis, m1 CHO, at 30 × Ki, percentage of mean carbachol value
[10] = m2, cloned human receptors in CHO cells, read-out: [3H]QNB Binding Ki(μM) m2
[11] = read-out: m1 CHO % Carbachol (at Ki), PI hydrolysis, m1 CHO, at Ki, percentage of mean carbachol value
[12] = read-out: m1 CHO @ 30 × Ki % Carbachol
[13] = percentage of mean carbachol value
[14] = read-out: m1 CHO % Carbachol (at Ki)

In the case of `CCCCCCOc1nccnc1O[C@H]1CN2CC[C@@H]1C2` (relative stereo) [Example 1, (±)-(endo)-3-(3-Hexyloxy-pyrazin-2-yloxy)-1-aza-bicyclo 2.2.1!heptane], the Ki [1, 7] is reported as 0.03 µM, the Ki [2, 8] is reported as 0.02 µM and the Emax [3, 9] is reported as 102%.

Work on `CCCCCCSc1nccnc1O[C@H]1CN2CC[C@@H]1C2` (relative stereo) [Example 2, (endo)-3-(3-Hexylsulfanyl-pyrazin-2-yloxy)-1-aza-bicyclo 2.2.1!heptane] yielded a Ki [1, 7] of 0.0067 µM, a Ki [2, 10] of 0.013 µM and an Emax [3, 9] of 97.1%.

For `CCCCCCSc1nccnc1O[C@@H]1CN2CC[C@@H]1C2` (relative stereo) [Example 6, (exo)-3-(3-Hexylsulfanyl-pyrazin-2-yloxy)-1-azabicyclo 2.2.1!heptane], the Ki [1, 7] was 0.123 µM, the Ki [2, 10] was 0.088 µM and the Emax [3, 11] was 104%.

Molecule `CCCCCCOc1nccnc1S[C@@H]1CN2CC[C@@H]1C2` (relative stereo) [Example 11, (exo)-3-(3-Hexyloxy-pyrazin-2-ylsulfanyl)-1-azabicyclo 2.2.1!heptane] has a Ki [1, 7] of 0.292 µM and an Emax [3, 11] of 41.6%.

`CCCCCCSc1nccnc1S[C@@H]1CN2CC[C@@H]1C2` (relative stereo) [Example 12, (exo)-3-(3-Hexylsulfanyl-pyrazin-2-ylsulfanyl)-1-azabicyclo-2.2.1!heptane] gave a Ki ([1]; read-out: [3H]QNB Binding Ki(μM) m1) of 0.03 µM, a Ki [2, 8] of 0.064 µM and an Emax [3, 12] of 62%.

For `CCCCCCOc1nccnc1O[C@H]1CN2CC[C@@H]1C2` (single isomer, unassigned), the Ki [4] was 0.032 µM and the EC50 [5] was 0.0055 µM.

In the case of `CCCCCCSc1nccnc1O[C@H]1CN2CC[C@@H]1C2` (single isomer, unassigned) [2(+), (+)-(endo)-3-(3-hexylsulfanyl-pyrazin-2-yloxy)-1-aza-bicyclo 2.2.1!heptane], the Ki [1, 7] is reported as 0.027 µM, the Ki [2, 10] is reported as 0.063 µM and the Emax [3, 9] is reported as 31.1%.

`CCCCCCSc1nccnc1O[C@H]1CN2CC[C@@H]1C2` (single isomer, unassigned) [Example 2(-), (-)-(endo)-3-(3-hexylsulfanyl-pyrazin-2-yloxy)-1-aza-bicyclo 2.2.1!heptane] was tested, and the EC50 [6] was 0.016 µM, the “Functional Selectivity-m2/m1” value [6] was 40 and the Ki [2, 10] was 0.0045 µM. It also gave an Emax [3, 11] of 46.5% and an EC50 [3] of 0.0004 µM.

`CCCCCCOc1nccnc1O[C@H]1CN2CC[C@@H]1C2` (single isomer, unassigned) [Example 4] gave a Ki [2, 8] of 0.024 µM.

For `CCCCCCOc1nccnc1O[C@H]1CN2CC[C@@H]1C2` (single isomer, unassigned) [Example 5, (+)-endo-3-(3-Hexyloxy-pyrazin-2-yloxy)-1-azabicyclo 2.2.1!heptane], the Ki [1, 7] was 0.083 µM, the Ki [2, 8] was 0.071 µM and the “m1 CHO @ 30 × Ki % Carbachol” value [3, 13] was 51%.

For `CCCCCCSc1nccnc1O[C@@H]1CN2CC[C@@H]1C2` (single isomer, unassigned) [Example 7, (+)-exo-3-(3-Hexylsulfanyl-pyrazin-2-yloxy)-1-azabicyclo 2.2.1!heptane], the EC50 [6] was 2.4 µM, the “Functional Selectivity-m2/m1” value [6] was 240 and the Ki [2, 10] was 0.059 µM. The “m1 CHO % Carbachol (at Ki)” value [3, 13] was 107.3% and the EC50 [3] was 0.0103 µM.

In the case of `CCCCCCSc1nccnc1O[C@@H]1CN2CC[C@@H]1C2` (single isomer, unassigned) [Example 8, (-)-(exo)-3-(3-Hexylsulfanyl-pyrazin-2-yloxy)-1-azabicyclo 2.2.1!heptane], the Ki [2, 10] is reported as 0.008 µM and the “m1 CHO % Carbachol (at Ki)” value [3, 13] is reported as 44.2%.

In the case of `CCCCCCOc1nccnc1O[C@@H]1CN2CC[C@@H]1C2` (single isomer, unassigned) [Example 9, (-)-(exo)-3-(3-Hexyloxy-pyrazin-2-yloxy)-1-azabicyclo 2.2.1!heptane], the Ki [2, 8] is reported as 0.774 µM and the “m1 CHO @ 30 × Ki % Carbachol” value [3, 13] is reported as 56%.

With `CCCCCCOc1nccnc1O[C@@H]1CN2CC[C@@H]1C2` (single isomer, unassigned) [Example 10, (+)-(exo)-3-(3-Hexyloxy-pyrazin-2-yloxy)-1-azabicyclo 2.2.1!heptane] the Ki [2, 8] was 0.149 µM and the “m1 CHO @ 30 × Ki % Carbachol” value [3, 13] was 9%.

For `CCCCCCSc1nccnc1SC1CN2CCC1CC2` (stereo not shown) [Example 13, 3-(3-Hexylsulfanyl-pyrazin-2-ylsulfanyl)-1-azabicyclo 2.2.2!octane], the Ki [1] was 0.029 µM and the Emax [3, 12] was 45.9%.

Molecule `CCCCCCOc1nccnc1SC1CN2CCC1CC2` (stereo not shown) [Example 14, 3-(3-Hexyloxy-pyrazin-2-ylsulfanyl)-1-azabicyclo 2.2.2!octane] has a Ki [1] of 0.076 µM and an Emax [3, 14] of 29.5%.

`CCCCCCOc1nccnc1OC1CN2CCC1CC2` (stereo not shown) [Example 15] gave a Ki [1] of 0.14 µM, a Ki ([2]; [3H]QNB Binding Ki(μM) m2, m2, cloned human receptors in CHO cells) of 0.124 µM and an Emax [3, 14] of 59.6%.
